# Data reported in US9180094B2, “High porosity materials, scaffolds, and method of making” (The Texas A&M University System, priority 2011, dated 2015).
# Tests used:
# [1] = tested on: human mesenchymal stem cells; assay: Cell viability with scaffold samples introduced into the medium; type: cell-based; conditions: scaffold prepared with 5 wt. % initiator in the medium, after 72 hours
# Description: Said initiators are typically those with decomposition temperature ranging from between about 25 to about 100° C. Examples include but are not limited to azobis-isobutyronitrile (AIBN) and benzoyl peroxide (BPO). Preliminary tack-free time studies of polyHIPE emulsions prepared with 5 wt. % AIBN or BPO indicated a […] cure time compared with emulsions prepared with 5 wt. % ammonium persulfate. The time to cure was about 7-12 hours with an ammonium persulfate initiator (aqueous phase free radical initiator) as compared with about 1.5 hours with the AIBN or BPO (organic soluble free radical initiator).
# cells = assay: Cytocompatibility of cells after addition of surfactant PGPR; type: cell-based; conditions: concentrations that permit emulsification (0.1, 1.0 or 5 wt. %)
# Excerpt: FIG. 3C depicts cytocompability of cells after addition of the surfactant, PGPR, at 0.1 wt. %, 1.0 wt. % or 5 wt. %;
# [2] = tested on: human mesenchymal stem cells (hMSCs); assay: hMSC adhesion and spreading on scaffolds and films; type: cell-based; conditions: polyHIPE scaffolds fabricated with PGPR, AIBN initiated, between 3 and 24 hours after seeding
# Description: For three-dimensional scaffolds described herein, the behavior of the surfactant may be further modified to improve cell adhesion to the scaffold of cells, such as fibroblasts, mesenchymal stem cells, osteoblasts, chondrocytes, and other matrix formed cells. […] PolyHIPEs were prepared with PGPR and initiated with AIBN. When cured, as previously described, samples were sectioned using a precision diamond wafering saw. Prior to seeding with human mesenchymal stem cells (hMSCs), the polyHIPEs samples were soaked in 70% ethanol to sterilize, subjected to a wetting ladder to increase aqueous solution penetration, and incubated overnight in medium enhanced with 40 wt. % fetal bovine serum (FBS). The scaffolds were then seeded at a concentration of about 2×10^3 and 10×10^3 cells/cm^2. On scaffolds fabricated with PGPR, hMSC adhesion and spreading declined when measured between 3 and 24 hours after seeding. It was hypothesized that PGPR may be affecting protein adsorption and/or their conformation when attempting to localize on the polyHIPE scaffold. This was further analyzed on PFDMA films prepared with and without PGPR. The effect of PGPR on protein adsorption and/or conformation was confirmed at 24 hours, in which hMSC adhesion and spreading decreased on PGPR-PFDMA film specimens as compared with control (PFDMA alone) specimens. […]
# Macromer viscosity = type: physicochemical
# Description: Further described is a method of preparing a polyHIPE. In one form the polyHIPE is prepared with a biodegradable fumerate having ester linkages. One example is PFDMA. The method further comprises a two-step process. The first step produced an intermediate molecule as a diester intermediate. In one form the intermediate was bis-(1,2-hydroxypropyl)fumarate (FIG. 1A). The intermediate was then functionalized with methacrylate endgroups (FIG. 1B). With purification, the structure of the resulting formed material, PFDMA, was confirmed with ^1H NMR, as represented in FIG. 2. Integration ratio of methacryloyl protons to fumarate protons in the ^1H NMR spectra was confirmed and the formed structure was, in this example, a PFDMA as a single fumarate unit with two terminal methacrylate groups. The average functionalization was calculated to be greater than 80%. In some embodiments, functionalization was calculated to be at or about 83%. The methacrylate and fumarate groups provided sites for radical crosslinking as further described below. It is, in part, the crosslinking as described herein that allows cure of the HIPE at physiological temperatures.
molecule,measurement,setting,value
"CC(C)(C#N)N=NC(C)(C)C#N [AIBN, azobis-isobutyronitrile]",effect on cell viability,[1],Neither 5 wt. % AIBN or 5 wt. % BPO appeared to greatly effect cell viability
"O=C(OOC(=O)c1ccccc1)c1ccccc1 [BPO, benzoyl peroxide]",effect on cell viability,[1],Neither 5 wt. % AIBN or 5 wt. % BPO appeared to greatly effect cell viability
polyglycerol polyricinoleate [PGPR 4125],cytocompatibility with cells,cells,cytocompatible
same,hMSC adhesion and spreading on scaffolds,[2],declined
propylene fumarate dimethacrylate [PFDMA],viscosity,Macromer viscosity,about 125 cP
